Broadly, the Ki is a measure of affinity in units of concentration, obtained from inhibition or displacement.

Assay [1] deals with T1, first (BD1: amino acids K57-E168) bromodomain of BRD4 (Homo sapiens, UniProt O60885).
T1 construct: His-tagged first (BD1: amino acids K57-E168)
The assay can be described thus: TR-FRET bromodomain binding assay, BRD4 BD1. The note with it: Ki calculated from IC50, probe Kd and probe concentration, read-out: TR-FRET Binding Ki: BRD4 (BDI_K57-E168). Here is the method: (§1) A time-resolved fluorescence resonance energy transfer (TR-FRET) assay was used to determine the affinities of compounds of the Examples listed in Table 1 for each bromodomain of BRD4. His-tagged first (BD1: amino acids K57-E168) and second (BD2: amino acids E352-E168) bromodomains of BRD4 were expressed and purified. An Alexa647-labeled BET-inhibitor was used as the fluorescent probe in the assay.
(§2) Compound dilution series were prepared in DMSO via an approximately 3-fold serial dilution from one of the following:
(§3) or 5-fold serial dilution from one of the following:
(§4) Assay method A: 2.5 mM-800 nM
(§5) For Assay methods A, C, D, and F: Compounds were then diluted 6:100 in assay buffer (20 mM Sodium Phosphate, pH 6.0, 50 mM NaCl, 1 mM Ethylenediaminetetraacetic acid, 0.01% Triton X-100, 1 mM DL-Dithiothreitol) to yield 3× working solutions. […] of this solution were added to the assay plate to reach a final volume of 18 μL.
(§6) TR-FRET data were normalized to the means of 24 no-compound controls (“high”) and 8 controls containing 1 μM un-labeled probe (“low”). Percent inhibition was plotted as a function of compound concentration and the data were fit with the 4 parameter logistic equation to obtain IC50s. Inhibition constants (Ki) were calculated from the IC50s, probe Kd and probe concentration. Typical Z′ values were between 0.65 and 0.75.

In assay [2] the target is T2, second (BD2: amino acids E352-E168) bromodomain of BRD4 (Homo sapiens, UniProt O60885).
T2 construct: protocol
The assay can be described thus: TR-FRET bromodomain binding assay, BRD4 BD2. Conditions: Ki calculated from IC50, probe Kd and probe concentration, read-out: TR-FRET Binding Ki: BRD4 (BDII_E352-M457). The protocol:
as §1, §2, §3, §4, §5, §6

The mark [3] stands for this setting: TR-FRET assay protocol (A-G, compound concentration range).
[4] abbreviates: TR-FRET assay protocol (D, E or G) per compound.

Like-named read-outs stand apart in the source and are kept apart here.

As for `Cn1nc(-c2ccccc2Oc2ccccc2)c(-c2cncc(C(=O)NC3CCCC3)c2)cc1=O` [Example 145, N-cyclopentyl-5-[1-methyl-6-oxo-3-(2-phenoxyphenyl)-1,6-dihydropyridazin-4-yl]pyridine-3-carboxamide], the values for the Ki in assay [1] (setting [3]) and in assay [2] (setting [3]) were greater than 13000 nM and 10200 nM, respectively.

`Cn1nc(-c2ccccc2Oc2ccccc2)c(-c2ccc(C(O)c3ccccc3)cc2)cc1=O` (stereo not drawn) [Example 76, 5-{4-[hydroxy(phenyl)methyl]phenyl}-2-methyl-6-(2-phenoxyphenyl)pyridazin-3(2H)-one]: the Ki was 755 nM in assay [1] (setting [3]) and 1280 nM in assay [2] (setting [3]).

As for `Cc1ccncc1-c1cc(=O)n(C)nc1-c1ccccc1Oc1ccccc1` [Example 207, 2-methyl-5-(4-methylpyridin-3-yl)-6-(2-phenoxyphenyl)pyridazin-3(2H)-one], the Ki was 7020 nM in assay [1] (setting [3]) and 11800 nM in assay [2] (setting [3]).

On to `Cn1nc(-c2ccccc2Oc2ccccc2)c(-c2cc3ccccc3n2C)cc1=O` [Example 214, 2-methyl-5-(1-methyl-1H-indol-2-yl)-6-(2-phenoxyphenyl)pyridazin-3(2H)-one], for which the Ki was greater than 13000 nM in assay [1] (setting [3]) and 10400 nM in assay [2] (setting [3]).

With `CCOc1cc(=O)n(C)cc1-c1cc(NS(=O)(=O)CC)ccc1OC1Cc2ccccc2C1` [Example 394, N-[4-(2,3-dihydro-1H-inden-2-yloxy)-3-(4-ethoxy-1-methyl-6-oxo-1,6-dihydropyridin-3-yl)phenyl]ethanesulfonamide], the Ki in assay [1] (setting [4]) is 272 nM; in assay [2] (setting [4]), 516 nM.

Take `CCOc1cccc(-c2cc(=O)n(C)nc2-c2ccccc2Oc2ccccc2)c1F` [Example 136, 5-(3-ethoxy-2-fluorophenyl)-2-methyl-6-(2-phenoxyphenyl)pyridazin-3(2H)-one]: the Ki is 4330 nM in assay [1] (setting [3]) and 6700 nM in assay [2] (setting [3]).

Turning to `CCS(=O)(=O)c1ccc(Oc2ccccc2C#CCO)c(-c2cn(C)c(=O)cc2Cl)c1` [Example 314, 4-chloro-5-{5-(ethylsulfonyl)-2-[2-(3-hydroxyprop-1-yn-1-yl)phenoxy]phenyl}-1-methylpyridin-2(1H)-one], the values for the Ki in assay [1] (setting [3]) and in assay [2] (setting [3]) were 642 nM and 229 nM, respectively.

With `CCOc1cc(=O)n(C)cc1-c1cc(NS(=O)(=O)CC)ccc1OC1CCN(c2ccc(C(F)(F)F)cc2)CC1` [Example 410, N-[3-(4-ethoxy-1-methyl-6-oxo-1,6-dihydropyridin-3-yl)-4-({1-[4-(trifluoromethyl)phenyl]piperidin-4-yl}oxy)phenyl]ethanesulfonamide], the Ki is 590 nM in assay [1] (setting [4]) and 560 nM in assay [2] (setting [4]).

Consider `CCOc1cc(=O)n(C)cc1-c1cc(NC(=O)CC(C)(C)C)ccc1Oc1ccc(F)cc1F` [Example 296, N-[4-(2,4-difluorophenoxy)-3-(4-ethoxy-1-methyl-6-oxo-1,6-dihydropyridin-3-yl)phenyl]-3,3-dimethylbutanamide], for which the Ki in assay [1] (setting [3]) is 195 nM; in assay [2] (setting [3]), 104 nM.

Regarding `COc1ccc(F)c(-c2cc(=O)n(C)nc2-c2ccccc2Oc2ccccc2)c1` [Example 210, 5-(2-fluoro-5-methoxyphenyl)-2-methyl-6-(2-phenoxyphenyl)pyridazin-3(2H)-one], the Ki in assay [1] (setting [3]) was 9870 nM; in assay [2] (setting [3]), 15200 nM.

On to `Cn1nc(-c2ccccc2Oc2ccccc2)c(C2=CCNCC2)cc1=O` [Example 82, 2-methyl-6-(2-phenoxyphenyl)-5-(1,2,3,6-tetrahydropyridin-4-yl)pyridazin-3(2H)-one], for which the Ki in assay [1] (setting [3]) was 4070 nM; in assay [2] (setting [3]), 2480 nM.

With `CN(C(=O)c1cccc(-c2cc(=O)n(C)nc2-c2ccccc2Oc2ccccc2)c1)C1CCCCC1` [Example 148, N-cyclohexyl-N-methyl-3-[1-methyl-6-oxo-3-(2-phenoxyphenyl)-1,6-dihydropyridazin-4-yl]benzamide], the Ki in assay [1] (setting [3]) is greater than 13000 nM; in assay [2] (setting [3]), 19700 nM.

On to `CCS(=O)(=O)Nc1ccc(Oc2ccc(OC3CCN(C(=O)OC(C)(C)C)CC3)cc2F)c(-c2cn(C)c(=O)cc2OC2CCN(C(=O)OC(C)(C)C)CC2)c1` [Example 320, tert-butyl 4-[(5-{2-(4-{[1-(tert-butoxycarbonyl)piperidin-4-yl]oxy}-2-fluorophenoxy)-5-[(ethylsulfonyl)amino]phenyl}-1-methyl-2-oxo-1,2-dihydropyridin-4-yl)oxy]piperidine-1-carboxylate], for which the Ki was greater than 2380 nM in assay [1] (setting [3]) and 275 nM in assay [2] (setting [3]).

On to `Cn1nc(-c2ccccc2Oc2ccccc2)c(-c2cccc(C(=O)N3CCSCC3)c2)cc1=O` [Example 142, 2-methyl-6-(2-phenoxyphenyl)-5-[3-(thiomorpholin-4-ylcarbonyl)phenyl]pyridazin-3(2H)-one], for which the Ki in assay [1] (setting [3]) is 2400 nM; in assay [2] (setting [3]), 1730 nM.

Regarding `Cn1nc(-c2ccccc2OC2CCCC2)ccc1=O` [Example 4, 6-[2-(cyclopentyloxy)phenyl]-2-methylpyridazin-3(2H)-one], the Ki in assay [1] (setting [3]) is 1340 nM; in assay [2] (setting [3]), greater than 4080 nM.

Turning to `COc1ccc(-c2cc(=O)n(C)nc2-c2ccccc2Oc2ccccc2)cn1` [Example 116, 5-(6-methoxypyridin-3-yl)-2-methyl-6-(2-phenoxyphenyl)pyridazin-3(2H)-one], the Ki in assay [1] (setting [3]) was 1050 nM; in assay [2] (setting [3]), 553 nM.

Take `CCOc1ccc(-c2cc(=O)n(C)nc2-c2ccccc2Oc2ccccc2)cc1` [Example 117, 5-(4-ethoxyphenyl)-2-methyl-6-(2-phenoxyphenyl)pyridazin-3(2H)-one]: the Ki is 1490 nM in assay [1] (setting [3]) and 619 nM in assay [2] (setting [3]).

On to `Cn1nc(-c2ccccc2Oc2ccccc2)c(-c2cccc(C(=O)N3CCOCC3)c2)cc1=O` [Example 175, 2-methyl-5-[3-(morpholin-4-ylcarbonyl)phenyl]-6-(2-phenoxyphenyl)pyridazin-3(2H)-one], for which the Ki in assay [1] (setting [3]) is 2950 nM; in assay [2] (setting [3]), 2490 nM.

Take `CCO/C=C\c1cc(=O)n(C)cc1-c1cc(S(C)(=O)=O)ccc1NCC1CC1` [Example 337, 5-{2-[(cyclopropylmethyl)amino]-5-(methylsulfonyl)phenyl}-4-[(Z)-2-ethoxyethenyl]-1-methylpyridin-2(1H)-one]: the Ki in assay [1] (setting [3]) is 611 nM; in assay [2] (setting [3]) it was 1830 nM.

`Cn1nc(-c2ccccc2Oc2ccccc2)c(-c2cccc(S(=O)(=O)N3CCCC3)c2)cc1=O` [Example 156, 2-methyl-6-(2-phenoxyphenyl)-5-[3-(pyrrolidin-1-ylsulfonyl)phenyl]pyridazin-3(2H)-one]: the Ki in assay [1] (setting [3]) was greater than 13000 nM; in assay [2] (setting [3]), 13100 nM.

As for `CN(C)C(=O)c1cc(-c2cc(=O)n(C)nc2-c2ccccc2Oc2ccccc2)ccc1F` [Example 155, 2-fluoro-N,N-dimethyl-5-[1-methyl-6-oxo-3-(2-phenoxyphenyl)-1,6-dihydropyridazin-4-yl]benzamide], the Ki in assay [1] (setting [3]) is 5520 nM; in assay [2] (setting [3]), 6900 nM.

Regarding `Cn1nc(-c2ccccc2Oc2ccccc2)c(-c2ccc(C(=O)N3CCCC3)cc2)cc1=O` [Example 183, 2-methyl-6-(2-phenoxyphenyl)-5-[4-(pyrrolidin-1-ylcarbonyl)phenyl]pyridazin-3(2H)-one], the figures for the Ki in assay [1] (setting [3]) and in assay [2] (setting [3]) were 256 nM and 166 nM, respectively.

Take `Cn1nc(-c2ccccc2Oc2ccccc2)c(-c2ccncc2)cc1=O` [Example 104, 2-methyl-6-(2-phenoxyphenyl)-5-(pyridin-4-yl)pyridazin-3(2H)-one]: the values for the Ki in assay [1] (setting [3]) and in assay [2] (setting [3]) were 1600 nM and 562 nM, respectively.

Take `Cc1cc(-c2cc(=O)n(C)nc2-c2ccccc2Oc2ccccc2)cnc1N1CCOCC1` [Example 166, 2-methyl-5-[5-methyl-6-(morpholin-4-yl)pyridin-3-yl]-6-(2-phenoxyphenyl)pyridazin-3(2H)-one]: the results for the Ki in assay [1] (setting [3]) and in assay [2] (setting [3]) were 705 nM and 1010 nM, respectively.

As for `CCN(CC)S(=O)(=O)c1cccc(-c2cc(=O)n(C)nc2-c2ccccc2Oc2ccccc2)c1` [Example 146, N,N-diethyl-3-[1-methyl-6-oxo-3-(2-phenoxyphenyl)-1,6-dihydropyridazin-4-yl]benzenesulfonamide], the Ki in assay [1] (setting [3]) is greater than 13000 nM; in assay [2] (setting [3]) it was 12200 nM.

For the molecule `COc1cccc(-c2cc(=O)n(C)nc2-c2ccccc2Oc2ccccc2)c1` [Example 197, 5-(3-methoxyphenyl)-2-methyl-6-(2-phenoxyphenyl)pyridazin-3(2H)-one], the Ki in assay [1] (setting [3]) was 1060 nM; in assay [2] (setting [3]), 725 nM.

Regarding `Cc1c(-c2cc(=O)n(C)nc2-c2ccccc2Oc2ccccc2)cnn1C` [Example 204, 5-(1,5-dimethyl-1H-pyrazol-4-yl)-2-methyl-6-(2-phenoxyphenyl)pyridazin-3(2H)-one], the Ki in assay [1] (setting [3]) is 1020 nM; in assay [2] (setting [3]) it was 1960 nM.

(Values after US9561231B2 (AbbVie Inc., priority 2012, dated 2017).)
